These results are taken from US20250197416A1, “PARTHENOLIDE DERIVATIVES AND USE THEREOF” (University of Rochester, priority 2022, published 2025).

The conditions of series [1]: compared with parthenolide; cited from earlier work.
Series [2] concerns colon cancer cells (HCT-116). Nature of the series: MTT cell viability assay, HCT-116. The series is classed as cell-based, human. On the procedure: (§1) The anticancer activity of the compounds was determined using a MTT (3-[4,5-dimethylthiazol-2-yl]-2,5 diphenyl tetrazolium bromide) assay, which measures cell viability upon incubation of the cells with the compounds. […] Other notable structure-activity insights include the large impact on the linkage utilized for macrocyclization of 14-hydroxy-PTL-derived AB08 and AB24 on the cancer cell specificity of these molecules.
(§2) Experimental Procedures. All cancer cell lines were maintained in a 37° C. humidified incubator with 5% C02. A549, MDA-MB-231, PC-3, SK-N-MC, HeLa, SJSA-1, HCT-116, and SK-MEL-2 cells were cultured in DMEM medium (Gibco) supplemented with 10% FBS (Gibco) and 100 I.U./ml penicillin-streptomycin (Sigma). Adherent cells were dissociated using Accutase (Millipore) or trypsin-EDTA 0.25% (Gibco). Adherent cells were seeded in a 96-well plate at a density of 1000-20,000 cells per well in 180 μl complete DMEM media. Suspension cells were seeded in conical 96-well plates (Nunc) at a density of 30,000 cells per well in 90 ul of complete α-MEM media devoid of phenol red indicator. The plates were incubated in a humidified incubator for 16 hours prior to treatment. […] The resulting OD was measured at 550 nm using a multi-well plate reader (Tecan). […] The resulting absorbance was measured at 570 nm and 600 nm using a multi-well plate reader (Tecan).

Series [3] relates to human cancer cells: PC3, SK-N-MC, MDA-MB-231, A549, HeLa, SK-MEL-2, SJSA-1, HCT-116. The series is described as follows: MTT cell viability assay, panel of cancer cell lines. Type of series: cell-based. To be noted: 24 hours; for anticancer activity profile (cytotoxicity spectrum / cancer-type specificity): reduction of cell viability at 10 μM and 20 μM; for anticancer activity (reduction of cancer cell viability): 10 μM and 20 μM. On the procedure: as §1
Experimental Procedures. All cancer cell lines were maintained in a 37° C. humidified incubator with 5% C02. A549, MDA-MB-231, PC-3, SK-N-MC, HeLa, SJSA-1, HCT-116, and SK-MEL-2 cells were cultured in DMEM medium (Gibco) supplemented with 10% FBS (Gibco) and 100 I.U./ml penicillin-streptomycin (Sigma). Adherent cells were dissociated using Accutase (Millipore) or trypsin-EDTA 0.25% (Gibco). Adherent cells were seeded in a 96-well plate at a density of 1000-20,000 cells per well in 180 μl complete DMEM media. Suspension cells were seeded in conical 96-well plates (Nunc) at a density of 30,000 cells per well in 90 ul of complete α-MEM media devoid of phenol red indicator. The plates were incubated in a humidified incubator for 16 hours prior to treatment. PTL analogs were prepared as concentrated stocks (2 mM) in DMSO and stored at −30° C. Prior to testing, the analogs were diluted into complete cell culture medium and the media was supplemented with sterile DMSO (10% of final volume). For the initial cytotoxicity screening, the compounds were added to the cells in 20 μl aliquots to give a final concentration of 20 μM and 10 μM parthenologs and 1% DMSO (n=3). Following a 24-hour incubation, the culture media from the adherent cell plates (e.g., HeLa, A549) was aspirated and replaced with 100 pd of 1 mg/mL Thiazolyl Blue Tetrazolium Bromide (MTT, Fisher) in complete culture medium devoid of phenol red. After incubation at 37° C. for 1 hour, the plates were centrifuged (4000 rpm, 5 minutes), the media was removed and 100 ul of DMSO was added to solubilize the formazan product. The resulting OD was measured at 550 nm using a multi-well plate reader (Tecan). Suspension cells were treated for 24 hours in the presence or in the absence of the compounds at 10 μM and 20 μM, followed by measurement of cell viability using alamarBlue stain. After incubation, […] of AlamarBlue (Invitrogen) was added to each well and incubated until color change was observed, typically approximately 20-24 hours, in the control wells (1% DMSO in media, no compound). The resulting absorbance was measured at 570 nm and 600 nm using a multi-well plate reader (Tecan).
(Formazan colour is commonly taken as a measure of viable cells.)

The test system of series [4] is lung adenocarcinoma (A549). Nature of the series: MTT cell viability assay, A549. Type of series: cell-based, human. The following applies: relative to PTL. How it is done: as §1, §2
Series [5] deals with breast cancer cells (MDA-MB-231). The series is described as follows: MTT cell viability assay, MDA-MB-231. To be noted: relative to PTL. Type of series: cell-based, human. On the procedure: as §1, §2
Series [6] has as its system cervical (HeLa) cancer cells. The series is described as follows: MTT cell viability assay, HeLa. To be noted: 10 μM and 20 μM, 24 hours. The series is classed as cell-based, human. On the procedure: as §1, §2
The next series has as its system leukemia cell line HL-60. The series is described as follows: alamarBlue cell viability assay, HL-60. Type of series: cell-based. To be noted: 10 μM and 20 μM, 24 hours. How it is done:
The antileukemic activity of the PTL analogs was evaluated using the leukemia cell line HL-60 and the leukemia stem cell line M9-ENL1. To measure the compound activity against hematologic cells, cells were treated for 24 hours in the presence or in the absence of the PTL analog at 10 μM and 20 μM, followed by measurement of cell viability using alamarBlue stain (FIG. 9).
as §2, with “treatment. PTL analogs were prepared as concentrated stocks (2 mM) in DMSO and stored at −30° C.” for “treatment.”
(Alamar Blue is a resazurin reagent that responds to reducing activity.)

Take `CC1=CCCC2(C)OC2C2OC(=O)C(C)C2CC1` (stereo not shown): the “anticancer and anti-inflammatory activity after reduction of the α-methylene-γ-lactone group” value in series [1] is on record as “complete loss of activity”.

With `C=C1CC[C@H]2C(=C)C(=O)O[C@@H]2[C@H]2O[C@]2(C)CCC=CCCC(=O)OC1` [AB07], the “increased potency compared to PTL, based on half-maximal lethal dose (LD50)” value in series [2] (HCT-116, relative to PTL) was greater than 3 fold.

Consider `C=C(C)[C@@H]1C[C@H]2C(=C)C(=O)O[C@@H]2[C@H]2O[C@]2(C)CCC=CCCC(=O)O1` [AB10], for which, in series [3], the “anticancer activity profile (cytotoxicity spectrum / cancer-type specificity)” value was “intermediate”.

Take `C=C1C(=O)O[C@@H]2[C@H]3O[C@]3(C)CC[C@@H]3C(=CCn4c(=O)n(-c5ccccc5)c(=O)n43)CC[C@@H]12` [AB16]: in series [3], the “anticancer activity (reduction of cancer cell viability)” value is “potent anticancer activity against at least six cell lines” and the “anticancer activity profile (cytotoxicity spectrum / cancer-type specificity)” value was “intermediate”.

With `C=C1C(=O)O[C@@H]2[C@H]3O[C@]3(C)CCC3C(=CCC(C#N)(C#N)C3(C#N)C#N)CC[C@@H]12` (stereo partly shown) [AB17], in series [3], the “anticancer activity (reduction of cancer cell viability)” value is listed as “lower activity against the same cell lines”.

Take `C=C1C(=O)O[C@@H]2[C@H]3O[C@]3(C)CC[C@@H]3C(=CC[C@@H]4C(=O)OC(=O)[C@@H]43)CC[C@@H]12` [AB18]: the “anticancer activity (reduction of cancer cell viability)” value in series [3] is reported as “lower activity against the same cell lines”.

Turning to `C=C1C(=O)O[C@@H]2[C@H]3O[C@]3(C)CCC3C(=CCC4=C3C(O)C=CC4O)CC[C@@H]12` (stereo partly shown) [AB19], in series [3], the “anticancer activity (reduction of cancer cell viability)” value is “potent anticancer activity against at least six cell lines” and the “anticancer activity profile (cytotoxicity spectrum / cancer-type specificity)” value is given as “intermediate”.

With `C=C/C1=C\CC[C@@]2(C)O[C@@H]2[C@H]2OC(=O)C(=C)[C@@H]2CC1` [AB20], the “anticancer activity profile (cytotoxicity spectrum / cancer-type specificity)” value in series [3] was “high cancer-type specificity”.

`C=C1CC[C@H]2C(=C)C(=O)O[C@@H]2[C@@H]2O[C@]2(C)CCC/C=C\Cc2ccccc2C(=O)OC1` [AB24]: the “anticancer activity profile (cytotoxicity spectrum / cancer-type specificity)” value in series [3] is listed as “broad-spectrum cytotoxicity”.

Consider `C=C(C)[C@@H]1C[C@H]2C(=C)C(=O)O[C@@H]2[C@@H]2O[C@]2(C)CCCC=CCc2ccccc2C(=O)O1` [AB25], for which, in series [3], the “anticancer activity profile (cytotoxicity spectrum / cancer-type specificity)” value is “broad-spectrum cytotoxicity”. The “enhanced potency compared to PTL, based on half-maximal lethal dose (LD50)” value in series [4] and in series [5] was 210 fold in each case.

As for `C=CCC[C@@]1(C)O[C@@H]1[C@H]1OC(=O)C(=C)[C@@H]1CCC(=C)C=O` [AB26], the “anticancer activity profile (cytotoxicity spectrum / cancer-type specificity)” value in series [3] was “high cancer-type specificity”.

On to `C=C1C(=O)O[C@@H]2[C@H]3O[C@]3(C)CC/C=C3\COC(=O)O[C@H]3C[C@@H]12` [JMB02], for which the “anticancer activity (reduction of cancer cell viability)” value in series [3] was “less potent anticancer activity”.

Turning to `C=C1C(=O)O[C@@H]2[C@H]3O[C@]3(C)CC/C=C3\COS(=O)(=O)O[C@H]3C[C@@H]12` [JMB03], the “anticancer activity profile (cytotoxicity spectrum / cancer-type specificity)” value in series [3] is “high cancer-type specificity”. In addition, the “selective activity against colon (HCT-116) cancer cells” value in series [2] (10 μM and 20 μM, 24 hours) is “selective activity”. The “selective activity against cervical (HeLa) cancer cells” value in series [6] was “selective activity”.

For `C=C1C(=O)O[C@@H]2[C@H]3O[C@]3(C)CCC(Sc3ccccc3)C(C=O)C(=O)C[C@@H]12` (stereo partly shown) [JMB06], in the series with leukemia cell line HL-60, the “anticancer activity against HL-60” value is given as “relatively selective anticancer activity”.

For `C=C1C(=O)O[C@@H]2[C@H]3O[C@]3(C)CCC(C3C=CC(=O)O3)C(C=O)C(=O)C[C@@H]12` (stereo partly shown) [JMB07], the “anticancer activity against HL-60” value in the series on leukemia cell line HL-60 is given as “relatively selective anticancer activity”.

As to `C=C1C(=O)O[C@@H]2[C@H]3O[C@]3(C)CC/C=C(\C)C(=O)C[C@@H]12` [JMB08], in series [3], the “anticancer activity profile (cytotoxicity spectrum / cancer-type specificity)” value was “intermediate”.
